Assay results taken from article PMC11240878, “Synthesis, enzyme inhibition assay, and molecular modeling study of novel pyrazolines linked to 4-methylsulfonylphenyl scaffold: antitumor activity and cell cycle analysis” (RSC Advances, 2024).
Several values for one entry are separate records, joined by “and”; a condition that tells them apart may be missing. Equal values may be shown once.

How the values were obtained:
HL-60(TB) = test: NCI single-dose GI%, leukemia; assay type: cell-based, human; conditions: 10.0 μM in one dose
MOLT-4 = test: NCI single-dose GI%, leukemia; assay type: cell-based, human; conditions: MOLT-4, leukemia; 10.0 μM in one dose
UACC-257 = test: NCI single-dose GI%, melanoma; assay type: cell-based, human; conditions: UACC-257, melanoma; 10.0 μM in one dose
SR = test: NCI single-dose GI%, leukemia; assay type: cell-based, human; conditions: 10.0 μM in one dose
HT29 = test: NCI single-dose GI%, colon; assay type: cell-based, human; conditions: 10.0 μM in one dose
HOP-62 = test: NCI single-dose GI%, NSC lung; assay type: cell-based, human; conditions: HOP-62, NSC lung; 10.0 μM in one dose
SK-MEL-5 = test: NCI single-dose GI%, melanoma; assay type: cell-based, human; conditions: SK-MEL-5, melanoma; 10.0 μM in one dose
BT-549 = test: NCI single-dose GI%, breast; assay type: cell-based, human; conditions: BT-549, breast; 10.0 μM in one dose
A549/ATCC = test: NCI single-dose GI%, NSC lung; assay type: cell-based, human; conditions: 10.0 μM in one dose
CAKI-1 = test: NCI single-dose GI%, renal; assay type: cell-based, human; conditions: CAKI-1, renal; 10.0 μM in one dose
K-562 = test: NCI single-dose GI%, leukemia; assay type: cell-based, human; conditions: K-562, leukemia; 10.0 μM in one dose
T-47D = test: NCI single-dose GI%, breast; assay type: cell-based, human; conditions: 10.0 μM in one dose
UO-31 = test: NCI single-dose GI%, renal; assay type: cell-based, human; conditions: UO-31, renal; 10.0 μM in one dose
NCI-H522 = test: NCI single-dose GI%, NSC lung; assay type: cell-based, human; conditions: 10.0 μM in one dose
59 cancer cell lines = test: NCI 59 cancer cell line panel, single dose; assay type: cell-based, human; conditions: 10 μM single dose; for MG% (mean growth percent): 59 cell lines
SNB-75 = test: NCI single-dose GI%, CNS; assay type: cell-based, human; conditions: SNB-75, CNS; 10.0 μM in one dose
MCF7 = test: NCI single-dose GI%, breast; assay type: cell-based, human; conditions: 10.0 μM in one dose
RPMI-8226 = test: NCI single-dose GI%, leukemia; assay type: cell-based, human; conditions: RPMI-8226, leukemia; 10.0 μM in one dose
EKVX = test: NCI single-dose GI%, NSC lung; assay type: cell-based, human; conditions: 10.0 μM in one dose
HCT-116 = test: NCI single-dose GI%, colon; assay type: cell-based, human; conditions: HCT-116, colon; 10.0 μM in one dose
NCI-H226 = test: NCI single-dose GI%, NSC lung; assay type: cell-based, human; conditions: 10.0 μM in one dose
PC-3 = test: NCI single-dose GI%, prostate; assay type: cell-based, human; conditions: PC-3, prostate; 10.0 μM in one dose
MDA-MB-231 = test: cells; conditions: Homo sapiens, MDA-MB-231, 48 h, read-out: In vitro cytotoxicity IC50
Procedure: (§1) The antitumor experiment was conducted on 59 human tumor cell lines derived from nine different human tissues, following the procedure of the Drug Evaluation Branch at the NCI, Bethesda, MD.[33]

leukemia HL-60 = test: cells; conditions: Homo sapiens, HL-60, 48 h, read-out: In vitro cytotoxicity IC50
Procedure: as §1

[1] = system: breast adenocarcinoma MCF-7; test: cells; conditions: Homo sapiens, MCF7, 48 h, read-out: In vitro cytotoxicity IC50, MCF-7; MTT, 48 h drug exposure; mean ± SD of three experiments
in vitro = conditions: human
Procedure: (§2) A normal fibroblast-like fetal lung cell line (WI-38) was used to further investigate the therapeutic safety of the newly synthesized hybrids and evaluate their selective cytotoxicity toward normal and tumor cells.[33,77]
as §1

[2] = system: WI-38 normal fibroblast cells; test: in vitro; conditions: ratio of WI38 IC50 to cancer cell IC50 values
Procedure: as §2, §1

MDA-MB-468 = test: NCI single-dose GI%, breast; assay type: cell-based, human; conditions: MDA-MB-468, breast; 10.0 μM in one dose

Row | Compound | GI% (HL-60(TB)) [%] | GI% (MOLT-4) [%] | GI% (UACC-257) [%] | GI% (HT29) [%] | GI% (HOP-62) [%] | GI% (A549/ATCC) [%] | GI% (CAKI-1) [%] | GI% (K-562) [%] | GI% (T-47D) [%] | melting point [°C] | GI% (UO-31) [%] | GI% (NCI-H522) [%] | PCE (positive cytotoxic effect: ratio of cell lines with growth inhibition >10% to total cell lines) (59 cancer cell lines) | MG% (mean growth percent) (59 cancer cell lines) [%] | GI% (SNB-75) [%] | GI% (EKVX) [%] | GI% (NCI-H226) [%] | other results
1 | COc1ccc(C2CC(c3ccc(OC)cc3OC)=NN2C(=O)c2ccc(S(C)(=O)=O)cc2)cc1 (stereo not shown) [Compound 18o, (3-(2,4-Dimethoxyphenyl)-5-(4-methoxyphenyl)-4,5-dihydro-1H-pyrazol-1-yl)(4-(methylsulfonyl)phenyl)methanone] | 51 | 40 | 38 | 17 | 18 | 31 | 12 | 32 | 18 | 268 to 270 | 19 | 43 | 15/59 | 94.17 | 15 |  |  | GI% (SR): 11%; GI% (SK-MEL-5): 12%; GI% (BT-549): 11%
2 | CS(=O)(=O)c1ccc(C(=O)N2N=C(c3ccc(F)cc3)CC2c2ccc(F)cc2)cc1 (stereo not shown) [Compound 18e, (3,5-Bis(4-fluorophenyl)-4,5-dihydro-1H-pyrazol-1-yl)(4-(methylsulfonyl)phenyl)methanone] | 48 | 35 |  |  | 14 |  | 17 | 29 | 17 | 330 to 333 | 22 | 15 | 15/59 | 94.18 | 18 | 12 | 12 | GI% (MCF7): 13%; GI% (RPMI-8226): 12%; GI% (HCT-116): 17%; GI% (PC-3): 15%
3 | CN(C)C/C=C/C(=O)Nc1cc2c(Nc3ccc(F)c(Cl)c3)ncnc2cc1O[C@H]1CCOC1 [Afatinib, reference compound] |  |  |  |  |  |  |  |  |  |  |  |  |  |  |  |  |  | IC50 (MDA-MB-231): 8.05 ± 0.72 µM; IC50 (leukemia HL-60): 6.5 ± 0.77 µM; IC50 [1]: 7.91 ± 0.66 µM; IC50 at 48 h (in vitro): 44 ± 1.9 µM; Mean tumor selectivity index (WI38/HL60, MCF7, and MDA-MB-231) [2]: 5.93
4 | COc1ccc(C2=NN(C(=O)c3ccc(S(C)(=O)=O)cc3)C(c3ccc(OC)cc3)C2)cc1 (stereo not shown) [Compound 18l, (3,5-Bis(4-methoxyphenyl)-4,5-dihydro-1H-pyrazol-1-yl)(4-(methylsulfonyl)phenyl)methanone] | 47 | 33 | 45 | 19 | 11 | 40 | 14 | 18 | 11 | 198 to 200 | 16 | 34 | 14/59 | 95.78 | 11 |  |  | GI% (MCF7): 11%; GI% (BT-549): 13%
5 | COc1cccc2c1C(=O)c1c(O)c3c(c(O)c1C2=O)C[C@@](O)(C(=O)CO)C[C@@H]3O[C@H]1C[C@H](N)[C@H](O)[C@H](C)O1 [DOX, doxorubicin, reference compound] |  |  |  |  |  |  |  |  |  |  |  |  |  |  |  |  |  | IC50 (MDA-MB-231): 5.1 ± 0.31 µM; IC50 (leukemia HL-60): 6.01 ± 0.2 µM; IC50 [1]: 4.77 ± 0.4 µM; IC50 at 48 h (in vitro): 7.12 ± 0.7 µM; Mean tumor selectivity index (WI38/HL60, MCF7, and MDA-MB-231) [2]: 1.36
6 | COc1ccccc1C1CC(c2ccccc2)=NN1C(=O)c1ccc(S(C)(=O)=O)cc1 (stereo not shown) [Compound 18i, (5-(2-Methoxyphenyl)-3-phenyl-4,5-dihydro-1H-pyrazol-1-yl)(4-(methylsulfonyl)phenyl)methanone] | 46 | 28 | 36 | 17 | 20 | 35 | 23 |  | 17 | 236 to 238 | 28 | 29 | ≤ 12/59 and 12/59 | 96.46 |  | 12 | 13 | 
7 | COc1ccc(C2=NN(C(=O)c3ccc(S(C)(=O)=O)cc3)C(c3ccccc3)C2)cc1 (stereo not shown) [Compound 18k, (3-(4-Methoxyphenyl)-5-phenyl-4,5-dihydro-1H-pyrazol-1-yl)(4-(methylsulfonyl)phenyl)methanone] | 18 | 27 |  | 20 |  | 13 |  |  |  | 226 to 228 | 15 | 35 | ≤ 12/59 and 12/59 | 97.49 | 11 |  | 14 | GI% (RPMI-8226): 11%; GI% (MDA-MB-468): 16%; GI% (SK-MEL-5): 14%; GI% (PC-3): 21%
8 | COc1ccc(C2CC(c3ccccc3)=NN2C(=O)c2ccc(S(C)(=O)=O)cc2)cc1 (stereo not shown) [Compound 18j, (5-(4-Methoxyphenyl)-3-phenyl-4,5-dihydro-1H-pyrazol-1-yl)(4-(methylsulfonyl)phenyl)methanone] | 35 | 26 | 14 |  |  | 24 |  | 13 | 16 | 258 to 260 |  | 14 | 10/59 | 97.16 | 12 | 12 | 11 | 
